Assays:
[1] = Solubility of the compound in FaSSIF at pH 6.5; format: physicochemical
[2] = Solubility of the compound in FeSSIF at pH 5.0; format: physicochemical
[3] = Aqueous solubility of compound at pH 1 to 8; format: physicochemical
[4] = system: Human immunodeficiency virus 1; test: Binding affinity to HIV1 wild type Gag assessed as dissociation constant by measuring half life
[5] = system: Human immunodeficiency virus 1; test: Antiviral activity against HIV1 wild type NL (4 to 3) infected in human MT2 cells measured after 4 to 5 days by dual-luciferase reporter assay; format: functional, organism-based; details: Human immunodeficiency virus 1, MT2
[6] = system: Human immunodeficiency virus 1; test: Antiviral activity against HIV1 wild type NL (4 to 3) infected in human MT2 cells measured after 4 to 5 days in presence of human serum by dual-luciferase reporter assay; format: functional, organism-based; details: Human immunodeficiency virus 1, MT2
[7] = system: Human immunodeficiency virus 1; test: Antiviral activity against HIV1 harbouring deltaV370/T371A mutant infected in human MT2 cells measured after 4 to 5 days by dual-luciferase reporter assay; format: functional, organism-based; details: Human immunodeficiency virus 1, MT2
[8] = system: Human immunodeficiency virus 1; test: Antiviral activity against HIV1 harbouring V362I/V370A mutant infected in human MT2 cells measured after 4 to 5 days by dual-luciferase reporter assay; format: functional, organism-based; details: Human immunodeficiency virus 1, MT2
[9] = system: Human immunodeficiency virus 1; test: Antiviral activity against HIV1 harbouring T332S/V362I/prR41G mutant infected in human MT2 cells measured after 4 to 5 days by dual-luciferase reporter assay; format: functional, organism-based; details: Human immunodeficiency virus 1, MT2
MT2 = test: Cytotoxicity in human MT2 cells assessed as reduction in cell viability; format: functional
[10] = system: Human immunodeficiency virus 1; test: Antiviral activity against HIV1 wild type subtype B NL (4 to 3) harbouring V362/Q369/V370/T371 transfected in human HEK293T cells by dual-luciferase reporter assay; format: functional, organism-based; details: Human immunodeficiency virus 1, HEK-293T
[11] = system: Human immunodeficiency virus 1; test: Antiviral activity against HIV1 wild type subtype B NL (4 to 3) transfected in human HEK293T cells by dual-luciferase reporter assay; format: functional, organism-based; details: Human immunodeficiency virus 1, HEK-293T
[12] = system: Human immunodeficiency virus 1; test: Antiviral activity against HIV1 wild type subtype C NL (4 to 3) transfected in human HEK293T cells by dual-luciferase reporter assay; format: functional, organism-based; details: Human immunodeficiency virus 1, HEK-293T
[13] = system: Human immunodeficiency virus 1; test: Antiviral activity against HIV1 NL (4 to 3) harbouring V362I mutant transfected in human HEK293T cells by dual-luciferase reporter assay; format: functional, organism-based; details: Human immunodeficiency virus 1, HEK-293T
[14] = system: Human immunodeficiency virus 1; test: Antiviral activity against HIV1 NL (4 to 3) harbouring V362I/deltaV370 mutant transfected in human HEK293T cells by dual-luciferase reporter assay; format: functional, organism-based; details: Human immunodeficiency virus 1, HEK-293T
[15] = Half life in overnight fasted Beagle dog at 1 mg/kg, iv; format: ADME, organism-based, Canis lupus familiaris; details: in vivo
[16] = Volume of distribution at steady state in overnight fasted mouse at 5 mg/kg, po or 1 mg/kg, iv; format: ADME, organism-based; details: in vivo
[17] = Volume of distribution at steady state in overnight fasted Sprague-Dawley rat at 5 mg/kg, po or 1 mg/kg, iv; format: ADME, organism-based; details: in vivo
[18] = Volume of distribution at steady state in overnight fasted Beagle dog at 2 mg/kg, po or 1 mg/kg, iv; format: ADME, organism-based, Canis lupus familiaris; details: in vivo
[19] = Volume of distribution at steady state in overnight fasted cynomolgus monkey at 2 mg/kg, po or 1 mg/kg, iv; format: ADME, organism-based, Macaca fascicularis; details: in vivo
[20] = Oral bioavailability in overnight fasted Beagle dog using spray-dried dispersion at 2 mg/kg; format: ADME, organism-based, Canis lupus familiaris; details: in vivo
[21] = Oral bioavailability in overnight fasted cynomolgus monkey using spray-dried dispersion at 2 mg/kg; format: ADME, organism-based, Macaca fascicularis; details: in vivo
[22] = AUC(0 to t) in overnight fasted mouse at 5 mg/kg, po or 1 mg/kg, iv; format: ADME, organism-based; design: dose 5 mg/kg, route po; details: in vivo
[23] = AUC(0 to t) in overnight fasted Sprague-Dawley rat at 5 mg/kg, po or 1 mg/kg, iv; format: ADME, organism-based; design: dose 5 mg/kg, route po; details: in vivo
[24] = AUC(0 to t) in overnight fasted Beagle dog at 2 mg/kg, po or 1 mg/kg, iv; format: ADME, organism-based, Canis lupus familiaris; design: dose 2 mg/kg, route po; details: in vivo
[25] = AUC(0 to t) in overnight fasted cynomolgus monkey at 2 mg/kg, po or 1 mg/kg, iv; format: ADME, organism-based, Macaca fascicularis; design: dose 2 mg/kg, route po; details: in vivo
[26] = Cmax in overnight fasted Beagle dog at 2 mg/kg, po or 1 mg/kg, iv; format: ADME, organism-based, Canis lupus familiaris; design: dose 2 mg/kg, route po; details: in vivo
[27] = Cmax in overnight fasted cynomolgus monkey at 2 mg/kg, po or 1 mg/kg, iv; format: ADME, organism-based, Macaca fascicularis; design: dose 2 mg/kg, route po; details: in vivo
[28] = system: Human immunodeficiency virus 1; test: Antiviral activity against HIV1 virus harboring NL (4 to 3) harbouring […]/V370A mutant transfected in human HEK293T cells by luciferase reporter assay; format: functional, organism-based; details: Human immunodeficiency virus 1, HEK-293T
[29] = system: Human immunodeficiency virus 1; test: Antiviral activity against HIV in plasma assessed log10 reduction of HIV RNA over 40 mg/kg, po measured after 11 days; format: functional; details: time 11 day
[30] = Binding affinity to HIV1 wild type Gag assessed as dissociation constant; design: species or system Human immunodeficiency virus 1
[31] = AUC in rat at 5 mg/kg, po; format: ADME, organism-based; design: dose 5 mg/kg, route po; details: in vivo, read-out: AUC

`C=C(C)[C@@H]1CC[C@]2(NCCN3CCS(=O)(=O)CC3)CC[C@]3(C)[C@H](CC[C@@H]4[C@@]5(C)CC=C(C6=CC[C@@](CF)(C(=O)O)CC6)C(C)(C)[C@@H]5CC[C@]43C)[C@@H]12.Cl.Cl` showed a solubility [1] of 310 µg/mL, a solubility [2] of 800 µg/mL and a solubility [3] of under 1 µg/mL.
For `C=C(C)[C@@H]1CC[C@]2(NCCN3CCS(=O)(=O)CC3)CC[C@]3(C)[C@H](CC[C@@H]4[C@@]5(C)CC=C(C6=CC[C@@](CF)(C(=O)O)CC6)C(C)(C)[C@@H]5CC[C@]43C)[C@@H]12`, the T1/2 [4] was 5.73 h.
`C=C(C)[C@@H]1CC[C@]2(NCCN3CCS(=O)(=O)CC3)CC[C@]3(C)[C@H](CC[C@@H]4[C@@]5(C)CC=C(c6ccc(C(=O)O)cc6)C(C)(C)[C@@H]5CC[C@]43C)[C@@H]12` [BMS-955176] gave an EC50 [5] of 5 nM, an EC50 [6] of 10.2 nM and an EC50 [7] of 6 nM. It also gave an EC50 [8] of over 3000 nM, an EC50 [9] of 704 nM and a CC50 (MT2) of 13000 nM. It also gave an EC50 [10] of 2.8 nM, an EC50 [11] of 66 nM and an EC50 [12] of 9.1 nM. It also gave an EC50 [13] of 11.1 nM, an EC50 [14] of 1400 nM and a half-life [15] of 31.7 h. It also gave a Vdss [16] of 0.82 L/kg, a Vdss [17] of 1.1 L/kg and a Vdss [18] of 0.36 L/kg. For the same molecule, the Vdss [19] was 0.43 L/kg, the F [20] was 9% and the bioavailability [21] was 4%. The AUC(0-t) [22] was 21.6 µM·h, the AUC(0-t) [23] was 14.2 µM·h and the AUCt [24] was 29.3 µM·h. It also gave an AUC(0-t) [25] of 1 µM·h, a Cmax [26] of 600 nM and a Cmax [27] of 100 nM. The EC50 [28] was over 3000 nM, the Activity [29] was over 1 log10IU/ml and the Kd [30] was 1.4 nM. For the same molecule, the T1/2 [4] was 0.717 h.
`C=C(C)[C@@H]1CC[C@]2(NCCN3CCC(S(C)(=O)=O)CC3)CC[C@]3(C)[C@H](CC[C@@H]4[C@@]5(C)CC=C(C6=CCC(CCO)(C(=O)O)CC6)C(C)(C)[C@@H]5CC[C@]43C)[C@@H]12` (stereo partly specified) showed an EC50 [5] of 3 nM, an EC50 [6] of 154 nM and an EC50 [7] of 3.7 nM. For the same molecule, the EC50 [8] was 2.2 nM, the EC50 [9] was 10.1 nM and the CC50 (MT2) was 4900 nM. It also gave an AUC [31] of 0.591 µM·h.
Work on `C=C(C)[C@@H]1CC[C@]2(NCCN3CCC(S(C)(=O)=O)CC3)CC[C@]3(C)[C@H](CC[C@@H]4[C@@]5(C)CC=C(C6=CCC(C(=O)O)(C(F)F)CC6)C(C)(C)[C@@H]5CC[C@]43C)[C@@H]12` (stereo partly specified) yielded an EC50 [5] of 1.9 nM, an EC50 [6] of 12.7 nM and an EC50 [7] of 1.3 nM. For the same molecule, the EC50 [8] was 2.5 nM, the EC50 [9] was 6.6 nM and the CC50 (MT2) was 11000 nM. It also gave an AUC [31] of 17.9 µM·h.

Source: ChEMBL document CHEMBL5113515, “The Discovery of GSK3640254, a Next-Generation Inhibitor of HIV-1 Maturation” (J Med Chem, 2022)
